According to BindingDB's records for doi:10.7270/Q2SX6BN0 (The Scripps Research Institute Molecular Screening Center, 2010):

Biological target: T1, NADPH oxidase 1 (Homo sapiens, UniProt Q9Y5S8)
T1 sequence (Q9Y5S8 whole entry): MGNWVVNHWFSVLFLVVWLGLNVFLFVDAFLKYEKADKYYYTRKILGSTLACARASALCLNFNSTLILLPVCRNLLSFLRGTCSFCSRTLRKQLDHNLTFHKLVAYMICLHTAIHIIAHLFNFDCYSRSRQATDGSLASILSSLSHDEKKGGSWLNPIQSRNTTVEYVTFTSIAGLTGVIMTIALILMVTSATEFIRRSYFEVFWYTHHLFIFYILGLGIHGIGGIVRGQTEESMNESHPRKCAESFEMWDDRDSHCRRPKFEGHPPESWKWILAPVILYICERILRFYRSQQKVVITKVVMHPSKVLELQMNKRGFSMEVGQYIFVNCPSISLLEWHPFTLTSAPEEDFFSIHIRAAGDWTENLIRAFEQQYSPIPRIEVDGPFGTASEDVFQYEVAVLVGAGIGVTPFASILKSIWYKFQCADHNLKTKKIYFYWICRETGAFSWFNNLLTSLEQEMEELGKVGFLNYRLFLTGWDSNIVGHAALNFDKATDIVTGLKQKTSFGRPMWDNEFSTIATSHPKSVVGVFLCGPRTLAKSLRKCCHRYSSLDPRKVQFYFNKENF
Assay: ROS production inhibition in HEK293 cells, late-stage follow-up, counter-screen for NOX1 inhibitor project, cell-based, IC50, set 2 (AID 435002)

IC50 [µM]	Compound
4	CN(C)c1ccc(CN=Nc2c(Cl)cncc2Cl)cc1
10	Oc1c(Br)cc(CN=Nc2c(Cl)cncc2Cl)cc1Br [4-[[2-[3,5-bis(chloranyl)pyridin-4-yl]hydrazinyl]methylidene]-2,6-bis(bromanyl)cyclohexa-2,5-dien-1-one]
